In patent publication US6544541B1, “Devices and compounds for treating arterial restenosis” (Cardiovascular Solutions, Inc., priority 1999, dated 2003):

Assays:
H4IIE hepatoma cells [1] = assay: RNA synthesis (3H-uridine incorporation) in insulin-stimulated quiescent H4IIE cells; assay type: cell-based; settings: comparison with 3-aminobenzamide; 1 μM insulin, 6 hours; FIG. 1
Procedure: Incorporation of uridine or thymidine was used to define the change in rate of […] synthesis, respectively, in response to a mitogen such as insulin. Specifically, quiescent H4IIE cells were prepared by placing the cultures (in 24-well dishes) into serum-free a-minimal essential medium for 3 days. It is of note that the normal growth media for H4IIE cells is α-MEM containing 10% fetal bovine serum (FBS). […] Cells were subsequently lysed with detergent and the nucleic acids precipitated with 5% trichloroacetic acid. The precipitated material was collected on glass fibre filters and the radioactive content measured by scintillation counting.

H4IIE hepatoma cells [2] = assay: DNA synthesis (3H-thymidine incorporation) in H4IIE cells; assay type: cell-based
Procedure: Incorporation of uridine or thymidine was used to define the change in rate of […] synthesis, respectively, in response to a mitogen such as insulin. Specifically, quiescent H4IIE cells were prepared by placing the cultures (in 24-well dishes) into serum-free a-minimal essential medium for 3 days. It is of note that the normal growth media for H4IIE cells is α-MEM containing 10% fetal bovine serum (FBS). After reaching quiescence, the cells were stimulated with 1 μM insulin and incubated for either 6 hours or 24 hours in the presence of 1 μCi/ml ^3H-uridine or ^3H-thymidine, respectively. Cells were subsequently lysed with detergent and the nucleic acids precipitated with 5% trichloroacetic acid. The precipitated material was collected on glass fibre filters and the radioactive content measured by scintillation counting. […] Furthermore, while complete inhibition of DNA synthesis by MIBG is obtained at approximately 20 μM, higher concentrations decrease basal DNA synthesis below control levels.

L6 myoblasts = assay: L6 myoblast differentiation; assay type: cell-based; settings: 25 μM; 2.5% horse serum; 4 days; FIG. 32
[3] = test system: porcine radial artery to coronary artery anastomoses; assay: bypass graft organ culture, PCNA expression; settings: 25 μM, 14 days in culture; FIG. 18
Procedure: Analogous to the organ culture model described above, a model of a radial artery to coronary artery bypass graft has been developed. It is of note that the construction of this anastomosis is identical to that used clinically in a bypass operation. Specifically, porcine radial artery to coronary artery anstomoses were conducted and placed into culture for 14 days. Control segments included coronary artery dissected and immediately frozen or incubated for 14 days before freezing. Alternatively, the anastomoses were incubated in the presence of 25 μM MIBG. PCNA (proliferating cell nuclear antigen) was detected by immunostaining after cryosectioning of the vessels. Nuclei were visualized with Hoescht […]. The numbers of nuclei and PCNA positive nuclei were determined and used to quantify the proliferation index.

porcine femoral artery = assay: balloon angioplasty of the porcine femoral artery in vivo; design: species or system pigs; settings: 14 days
Description: To test the effectiveness of MIBG under in vivo conditions, this compound was applied to the femoral artery after balloon angioplasty. This model provided a means of testing both MIBG and the method of application. Specifically, male castrated farm pigs (25-30 kg) were anaesthetized and maintained on isoflurane throughout the procedure. With the pig in a supine position, the left femoral artery was exposed from the bifurcation of the femoral and superficial femoral arteries to the point of insertion of the femoral artery into the groin. A mixture of nitroglycerin and papaverine was applied to the vessel and the area was covered with a saline-soaked sponge to keep the tissues moist. The right femoral artery was also exposed, treated and covered with a sponge. The left femoral was then clamped at both groin insertion (proximal) and bifurcation (distal) points, and an arteriotomy made at the bifurcation. The balloon (6.0×20 mm) was inserted through the arteriotomy in a retrograde manner (i.e. toward the groin) to a position 20 mm from the arteriotomy and the proximal clamp removed. The balloon was inflated for 1 minute, deflated and carefully removed, and the arteriotomy was closed with 6.0 ProleneTM suture. MIBG in combination with a biocompatible glue, in this example, Tisseel®, was applied to the surface of the vessel extending from the arteriotomy to the proximal region past the site of balloon inflation. The fibrin glue ensured that MIBG slowly diffused into the vessel. Furthermore, the fibrin glue helps to retain MIBG at the site for several days. The right femoral was handled as described above. […] The extent of restenosis was subsequently monitored by morphometry. […] Digital images were captured with a DAGE-MTI CCD camera and analyzed with SigmaScan Software. The neointimal and medial areas are quantified and used to calculate the neointimal index: neointimal area/medial area. […] Even though the vehicle cannot be detected after 14 days, we conclude that it remains for the minimum period necessary.

MAP kinase = MAP kinase activity gel after insulin stimulation of H4IIE cells; assay type: cell-based; settings: 50 μM MIBG; 1 μM insulin; 2-20 minutes; FIG. 27
Procedure: Extracts were prepared at 2, 5, 10 and 20 minutes after insulin addition. MAP kinase activity was measured using an activity gel protocol with myelin basic protein polymerized in the separating gel, as described in Yau and Zahradka, 1997, Mol Cell Biochem 172: 59-66. Scanning densitometry was used to quantify the band intensities. The location of the 42 and 44 kDa MAP kinase bands was confirmed by Western blot analysis.

[4] = test system: smooth muscle cells derived from human arterial conduits; assay: DNA synthesis and cytotoxicity in human smooth muscle cells; settings: FIG. 26A

Question: meta-iodobenzylguanidine [MIBG] was tested. Which “inhibition of cell growth as indicated by RNA synthesis in response to insulin” value (H4IIE hepatoma cells [1]) did it give?
Answer: Its value is “more potent inhibitor of cell growth”.

Question: What about the “concentration for complete inhibition of DNA synthesis” value (H4IIE hepatoma cells [2]; 1 μM insulin, 24 hours, FIG. 2) of the same substance?
Answer: Its value is “approximately 20 μM”.

Question: And the “inhibition of DNA synthesis (thymidine incorporation)” value (H4IIE hepatoma cells [2]; H4IIE cells)?
Answer: The value was “inhibits DNA synthesis”.

Question: And the “effect on L6 myoblast differentiation” value (L6 myoblasts)?
Answer: The value was “inhibits differentiation of L6 myoblasts at an early stage”.

Question: And the “increase in PCNA expression compared to segment examined immediately after dissection” value [3]?
Answer: Its value is < 10 fold.

Question: And the “restenosis after balloon angioplasty” value (porcine femoral artery; 25 mM in a 1.0 ml Tisseel bolus applied to vessel surface, FIGS. 20 and 21)?
Answer: Its value is “effectively prevents restenosis”.

Question: And the “medial fibrosis or cell loss” value (porcine femoral artery; 25 mM in a 1.0 ml Tisseel bolus, FIG. 20)?
Answer: Its value is “no evidence of medial fibrosis”.

Question: And the “MAP kinase activation by insulin” value (MAP kinase)?
Answer: The value was “does not inhibit MAP kinase activation by insulin”.

Question: And the “DNA synthesis and cytotoxicity compared with porcine cells” value [4]?
Answer: The value was “comparable effects in both porcine and human tissues”.
